From patent US6458812B1, “Muscarinic antagonists” (Schering Corporation, priority 2000, dated 2002)
Structures can show the parent of a compound that is named as a salt.

Assays:
[1] = Microsomal stability, rat; assay type: in vitro ADME; conditions: rat liver microsomes, 37° C.
Procedure: (§1) A solution of a compound of formula I at a final substrate concentration of […] and human, cynomolgus monkey or rat liver microsomes at final P450 concentrations of 0.18, 0.175 and 0.25 nmol/ml, respectively, is incubated in 0.1 M potassium phosphate buffer at pH 7.4 in 96-well micro-titre plates at 37° C. for 3 min in a shaking water bath. A cofactor solution containing MgCl2, Glucose-6-phosphate, NADPH, and Glucose-6-phosphate dehydrogenase is added to each sample (half the total incubation volume/sample) and the total incubation mixture is incubated for 0 and 30 min. (An n=3 samples is incubated for each compound). After each time point, an equal volume of CH3CN is added. The samples are mixed by vortexing and the plates are centrifuged at 3000 rpm for 20 min. The supernatant is analyzed by Liquid Chromatography Mass Spectrometry (LCMS) for parent drug and/or metabolites using an appropriate analytical method.

[2] = Microsomal stability, monkey; assay type: in vitro ADME, cynomolgus monkey; conditions: monkey liver microsomes, 37° C.
Procedure: as §1

[3] = Microsomal stability, human; assay type: in vitro ADME; conditions: human liver microsomes, 37° C.
Procedure: as §1

| SMILES | melting point | % remaining after 30 min. [1] | % remaining after 30 min. [2] | % remaining after 30 min. [3] |
| --- | --- | --- | --- | --- |
| C[C@H](NC(=O)c1ccc(CC2CCN(C3CCCCC3)CC2)cc1)c1ccc(F)cc1 (as salt: HCl) [Example 2] | 234 to 235 °C | – | – | – |
| C[C@H](NC(=O)c1ccc(CC2CCN(C3CCCCC3)CC2)cc1)c1ccc(F)cc1 [Example 2] | – | 79% | 80% | 80% |
